According to patent US20040143025A1, “Carbon monoxide generating compunds for treatment of vascular, inflammatory and immune disorders” (priority 2002, published 2004):

System: HO-1
Test: ELISA for HO-1 protein expression in liver
Design: species or system rat
Conditions: ZnPP = pretreatment then CO perfusion; CO = CO only
Experimental: ELISA for HO-1 protein expression. Livers were homogenized on ice in a Tris-HCl lysis buffer (pH 7.4) containing 0.5% Triton X-100 and protease inhibitors. Flat-bottom microtiter 96-well plates (Nunc) were coated with 7 μg/ml anti-HO-1 mAb (OSA-111, Stressgen, Canada) in PBS for 18 h at room temperature. Unbound Ab was removed by washing (wash buffer: 0.05% Tween 20 in 50 mM phosphate buffer, pH 7.5) and remaining binding sites were blocked by incubation with a 5% BSA/PBS solution (1 h). Recombinant HO-1 (SPP-730) and tissue homogenate were diluted in assay diluent (0.5% BSA/0.05% Tween 20/PBS) and incubated in anti-HO-1 mAb coated wells for 1 h at room temperature. Subsequently, plates were washed three times with wash buffer and incubated with rabbit anti-HO-1 polyclonal antibody (SPA-895, Stressgen; diluted 1:1000 in assay diluent) for 30 min at room temperature. Bound rabbit IgG was detected with a donkey anti-rabbit (gG-HRP conjugate (711-035-152, Jackson Research Laboratories; diluted 1:8000 in assay diluent). Unbound secondary Ab was removed by washing and bound HRP was detected using 1 mg/ml OPD in substrate buffer (0.1% H2O2, 0.1 M citric acid, 0.2 M Na2HPO4, pH 5.0). The color reaction was stopped with 1 M HCl and the optical density at 490 nm was measured.

## [C-]#[O+] [CO, carbon monoxide]
  HO-1 protein expression in liver samples (ELISA): 7.51±2.13 ng of HO-1/mg lysate
